Laboratory results reported in paper PMC10786919, “Design-rules for stapled peptides with in vivo activity and their application to Mdm2/X antagonists” (Nature Communications, 2024).
In brackets after ≈: the same amount, converted by molar mass. Positions of bridges follow the written chain, without caps; N, C: chain ends. Non-standard residues stand in square brackets, D forms with d. Residues, ends and D or L forms follow the SMILES beside them. Lys(N3) = [N-]=[N+]=NCCCC[C@H](N)C(=O)O; R8 = C=CCCCCCC[C@@](C)(N)C(=O)O; Cba = N[C@@H](CC1CCC1)C(=O)O; S5 = C=CCCC[C@](C)(N)C(=O)O; βAla = NCCC(=O)O

What was measured:
[1] = test system: CellSensor p53RE-bla HCT-116 Cell Line; conditions: 72 h
Procedure, shortened: (§1)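 Compound dilution series (10 points, 3-fold, 10 mM top stock in DMSO) tested on overnight-plated Ca Ski cells in RPMI1640/10% FBS and on blasticidin-selected p53RE-bla HCT-116 cells in McCoy's 5A; read-out was CellTiter-Glo 2.0 luminescence after room-temperature equilibration.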

[2] = test system: Ca Ski cell line; conditions: 72 h
Procedure, shortened: as §1

[3] = Experimental LogD (partition coefficient); conditions: not stated, Partition Coeff LogD
[4] = test system: HCT116 cells; experiment: Lactate dehydrogenase (LDH) release assay; assay type: cell-based
Procedure, shortened: (§2)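 LDH release, fluorometric membrane-integrity read-out; HCT116 with stable p53-responsive β-lactamase reporter; 8000 cells/well; 0.5% DMSO final; geometric mean, n≥3 biological replicates.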

[5] = Lactate dehydrogenase (LDH) release assay; assay type: cell-based; conditions: LDH: Cytotoxicity assay: EC50
Procedure, shortened: as §2

[6] = physchem
[7] = in vitro; conditions: Nanoclick permeability assay EC50
Procedure, shortened: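 Azido-peptide permeability was read as loss of NanoBRET signal (donor 450 nm, acceptor 610 nm) after adding NanoBret618-azide at 10 μM final.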

[8] = Solubility assay (kinetic solubility, PBS pH 7); assay type: physicochemical; conditions: pH 7, aqueous buffer, kinetic from dmso stock, pH 7, PBS; read-out: Solubility
Procedure, shortened: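 Reference standards were made by diluting the 10 mM stock to 100 µM in acetonitrile:methanol:DMSO 10:80:10. Solubility in µM was calculated as the sample peak area divided by the standard peak area, multiplied by the standard concentration.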

SMILES	EC50 [1] [µM]	EC50 [2] [µM]	logD [3]	LDH: Cytotoxicity assay: % Effect [4] [%]	EC50 [5] [µM]	EPSA [6] [A^2]	cell entry EC50 [7] [µM]	solubility kinetic [8] [µM]
CC[C@H](C)[C@H](NC(=O)CCNC(=O)[C@H](CCCCN=[N+]=[N-])NC(C)=O)C(=O)N[C@H](C(=O)N[C@@H](Cc1ccccc1)C(=O)N[C@]1(C)CCCCCCC=CCCC[C@@](C)(C(=O)N[C@@H](CO)C(=O)N[C@@H](C)C(=O)N[C@@H](C)C(N)=O)NC(=O)[C@H](CC2CCC2)NC(=O)[C@H](CCC(N)=O)NC(=O)[C@H]([C@@H](C)CC)NC(=O)[C@H](Cc2c[nH]c3ccccc23)NC(=O)[C@H](Cc2ccc(O)cc2)NC(=O)[C@H]([C@@H](C)CC)NC1=O)[C@@H](C)O [MP-491] (Ac-[Lys(N3)][βAla]ITF[R8]IYWIQ[Cba][S5]SAA-NH2; staple 6-13)	1.32	> 49.8	4.61	-1.101	> 50.6	196	0.237	–
CC(=O)N[C@@H](CCCCN=[N+]=[N-])C(=O)NCCC(=O)N[C@@H](CC(N)=O)C(=O)N[C@H](C(=O)N[C@@H](Cc1ccccc1)C(=O)N[C@]1(C)CCCCCCC=CCCC[C@@](C)(C(=O)N[C@@H](CO)C(=O)N[C@@H](C)C(=O)N[C@@H](C)C(N)=O)NC(=O)[C@H](CC2CCC2)NC(=O)[C@H](CCC(N)=O)NC(=O)[C@H](CC(N)=O)NC(=O)[C@H](Cc2c[nH]c3ccccc23)NC(=O)[C@H](Cc2ccc(O)cc2)NC(=O)[C@H](CC(N)=O)NC1=O)[C@@H](C)O [MP-497]	7.81	> 49.8	2.49	3.16	> 50.6	202	0.271	5 (≈ 10 µg/mL)
CC(=O)N[C@@H](CCCCN=[N+]=[N-])C(=O)NCCC(=O)N[C@@H](CO)C(=O)N[C@H](C(=O)N[C@@H](Cc1ccccc1)C(=O)N[C@]1(C)CCCCCCC=CCCC[C@@](C)(C(=O)N[C@@H](CO)C(=O)N[C@@H](C)C(=O)N[C@@H](C)C(N)=O)NC(=O)[C@H](CC2CCC2)NC(=O)[C@H](CCC(N)=O)NC(=O)[C@H](CO)NC(=O)[C@H](Cc2c[nH]c3ccccc23)NC(=O)[C@H](Cc2ccc(O)cc2)NC(=O)[C@H](CO)NC1=O)[C@@H](C)O [MP-5493] (Ac-[Lys(N3)][βAla]STF[R8]SYWSQ[Cba][S5]SAA-NH2; staple 6-13)	3.61	> 49.8	2.69	6.777	> 50.6	204	0.0294	–
CC(=O)N[C@@H](CCCCN=[N+]=[N-])C(=O)NCCC(=O)N[C@H](C(=O)N[C@H](C(=O)N[C@@H](Cc1ccccc1)C(=O)N[C@]1(C)CCCCCCC=CCCC[C@@](C)(C(=O)N[C@@H](CO)C(=O)N[C@@H](C)C(=O)N[C@@H](C)C(N)=O)NC(=O)[C@H](CC2CCC2)NC(=O)[C@H](CCC(N)=O)NC(=O)[C@H]([C@@H](C)O)NC(=O)[C@H](Cc2c[nH]c3ccccc23)NC(=O)[C@H](Cc2ccc(O)cc2)NC(=O)[C@H]([C@@H](C)O)NC1=O)[C@@H](C)O)[C@@H](C)O [MP-5494] (Ac-[Lys(N3)][βAla]TTF[R8]TYWTQ[Cba][S5]SAA-NH2; staple 6-13)	0.679	> 49.8	2.94	2.763	> 50.6	199	0.457	–
CC(=O)N[C@@H](CCCCN=[N+]=[N-])C(=O)NCCC(=O)N[C@@H](CCC(N)=O)C(=O)N[C@H](C(=O)N[C@@H](Cc1ccccc1)C(=O)N[C@]1(C)CCCCCCC=CCCC[C@@](C)(C(=O)N[C@@H](CO)C(=O)N[C@@H](C)C(=O)N[C@@H](C)C(N)=O)NC(=O)[C@H](CC2CCC2)NC(=O)[C@H](CCC(N)=O)NC(=O)[C@H](CCC(N)=O)NC(=O)[C@H](Cc2c[nH]c3ccccc23)NC(=O)[C@H](Cc2ccc(O)cc2)NC(=O)[C@H](CCC(N)=O)NC1=O)[C@@H](C)O [MP-5498] (Ac-[Lys(N3)][βAla]QTF[R8]QYWQQ[Cba][S5]SAA-NH2; staple 6-13)	6.24	38.3	2.6	8.092	> 50.6	198	0.0494	19.7 (≈ 40.2 µg/mL)
